How the values were obtained:
Test in all cases: Large panel kinase profiling
Type in all cases: biochemical
Details in all cases: 1 μM test article, 1 mM ATP
DYRK1B = molecular target: T1, DYRK1B (Homo sapiens, UniProt Q9Y463)
T1 construct: AssayQuant Technologies, Inc. (service laboratory)
Procedure, shortened: (§1)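 Reactions contain 1 mM ATP and 1 μM test article; the CSox peptide sensor reports phosphorylation as fluorescence gain. Temperature is held at 30° C. while signal (360 nm excitation, 485 nm emission) is recorded every 1 min.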

FLT3 = molecular target: T2, FLT3 (Homo sapiens, UniProt P36888)
T2 construct: AssayQuant Technologies, Inc. (service provider)
T2 sequence (P36888 27-993): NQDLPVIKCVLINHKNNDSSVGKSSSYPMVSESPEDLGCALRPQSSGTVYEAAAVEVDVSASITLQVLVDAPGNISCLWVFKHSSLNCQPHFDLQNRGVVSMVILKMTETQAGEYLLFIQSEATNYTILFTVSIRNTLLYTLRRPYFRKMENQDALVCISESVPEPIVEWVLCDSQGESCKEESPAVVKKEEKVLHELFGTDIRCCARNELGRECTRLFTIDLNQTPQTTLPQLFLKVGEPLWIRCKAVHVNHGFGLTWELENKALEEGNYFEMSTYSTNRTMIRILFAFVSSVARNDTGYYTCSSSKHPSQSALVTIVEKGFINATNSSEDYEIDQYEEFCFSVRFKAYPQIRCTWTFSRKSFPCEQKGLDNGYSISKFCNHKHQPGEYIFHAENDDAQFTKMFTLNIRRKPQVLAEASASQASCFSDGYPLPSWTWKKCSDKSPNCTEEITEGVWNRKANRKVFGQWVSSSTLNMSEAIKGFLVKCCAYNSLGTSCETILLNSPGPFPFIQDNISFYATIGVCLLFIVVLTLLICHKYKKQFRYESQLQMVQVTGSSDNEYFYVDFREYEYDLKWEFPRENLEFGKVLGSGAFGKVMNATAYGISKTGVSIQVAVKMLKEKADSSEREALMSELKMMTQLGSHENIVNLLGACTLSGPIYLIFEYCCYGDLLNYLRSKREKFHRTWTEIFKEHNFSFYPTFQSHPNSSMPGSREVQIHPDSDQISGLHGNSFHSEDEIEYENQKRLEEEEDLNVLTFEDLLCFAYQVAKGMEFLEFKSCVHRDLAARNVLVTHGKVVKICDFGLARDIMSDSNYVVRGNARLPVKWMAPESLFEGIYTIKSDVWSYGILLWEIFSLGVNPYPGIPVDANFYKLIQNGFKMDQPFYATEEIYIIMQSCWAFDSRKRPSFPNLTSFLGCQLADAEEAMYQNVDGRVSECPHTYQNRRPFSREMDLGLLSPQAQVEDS
Procedure, shortened: as §1

MAP3K11 = MAP3K11 (Homo sapiens, UniProt Q16584)
Procedure, shortened: as §1

MARK3 = molecular target: T3, MARK3 (Homo sapiens, UniProt P27448)
T3 construct: AssayQuant Technologies, Inc. (assay service)
Procedure, shortened: as §1

PDGFRA = PDGFRA (Homo sapiens, UniProt P16234)
Procedure, shortened: as §1

PDK1 = molecular target: T4, PDK1 (Homo sapiens, UniProt O15530)
T4 sequence (O15530 1-556): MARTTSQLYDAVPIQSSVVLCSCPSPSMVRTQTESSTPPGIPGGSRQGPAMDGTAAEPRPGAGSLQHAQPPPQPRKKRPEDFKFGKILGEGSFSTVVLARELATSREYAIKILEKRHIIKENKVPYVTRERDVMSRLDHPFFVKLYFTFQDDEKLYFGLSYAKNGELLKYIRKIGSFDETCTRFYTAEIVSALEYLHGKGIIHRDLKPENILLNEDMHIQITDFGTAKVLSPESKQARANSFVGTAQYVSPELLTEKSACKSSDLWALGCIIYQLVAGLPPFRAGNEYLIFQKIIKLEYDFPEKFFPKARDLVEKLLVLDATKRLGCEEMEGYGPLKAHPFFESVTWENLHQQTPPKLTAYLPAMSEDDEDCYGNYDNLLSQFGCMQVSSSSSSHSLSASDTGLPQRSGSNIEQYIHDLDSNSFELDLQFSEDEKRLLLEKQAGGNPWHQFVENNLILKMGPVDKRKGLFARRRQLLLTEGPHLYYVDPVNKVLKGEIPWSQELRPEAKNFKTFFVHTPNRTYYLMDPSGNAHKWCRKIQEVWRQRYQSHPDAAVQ
Procedure, shortened: as §1

PTK2 = PTK2 (Homo sapiens, UniProt Q05397)
Procedure, shortened: as §1

SLK = molecular target: T5, SLK (Homo sapiens, UniProt Q9H2G2)
T5 construct: AssayQuant Technologies, Inc. (contract assay)
Procedure, shortened: as §1

STK4/MST1 = molecular target: T6, STK4/MST1 (Homo sapiens, UniProt Q13043)
T6 construct: AssayQuant Technologies, Inc. (contract assay)
T6 sequence (Q13043 1-487): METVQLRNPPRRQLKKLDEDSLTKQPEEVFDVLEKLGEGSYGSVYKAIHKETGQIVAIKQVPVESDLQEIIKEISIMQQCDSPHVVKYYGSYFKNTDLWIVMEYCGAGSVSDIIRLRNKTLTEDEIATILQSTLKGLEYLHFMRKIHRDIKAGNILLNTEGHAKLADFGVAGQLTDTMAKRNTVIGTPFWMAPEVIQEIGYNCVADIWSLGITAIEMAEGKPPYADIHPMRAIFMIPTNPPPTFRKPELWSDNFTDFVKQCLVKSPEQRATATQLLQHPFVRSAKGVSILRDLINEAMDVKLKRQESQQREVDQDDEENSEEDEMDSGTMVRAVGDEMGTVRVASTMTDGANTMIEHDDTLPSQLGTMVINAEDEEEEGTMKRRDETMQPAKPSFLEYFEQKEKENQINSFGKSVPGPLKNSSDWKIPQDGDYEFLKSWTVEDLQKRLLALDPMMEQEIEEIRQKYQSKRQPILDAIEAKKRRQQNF
Procedure, shortened: as §1

Sequence of MAP3K11 (Q16584 whole entry, species assumed): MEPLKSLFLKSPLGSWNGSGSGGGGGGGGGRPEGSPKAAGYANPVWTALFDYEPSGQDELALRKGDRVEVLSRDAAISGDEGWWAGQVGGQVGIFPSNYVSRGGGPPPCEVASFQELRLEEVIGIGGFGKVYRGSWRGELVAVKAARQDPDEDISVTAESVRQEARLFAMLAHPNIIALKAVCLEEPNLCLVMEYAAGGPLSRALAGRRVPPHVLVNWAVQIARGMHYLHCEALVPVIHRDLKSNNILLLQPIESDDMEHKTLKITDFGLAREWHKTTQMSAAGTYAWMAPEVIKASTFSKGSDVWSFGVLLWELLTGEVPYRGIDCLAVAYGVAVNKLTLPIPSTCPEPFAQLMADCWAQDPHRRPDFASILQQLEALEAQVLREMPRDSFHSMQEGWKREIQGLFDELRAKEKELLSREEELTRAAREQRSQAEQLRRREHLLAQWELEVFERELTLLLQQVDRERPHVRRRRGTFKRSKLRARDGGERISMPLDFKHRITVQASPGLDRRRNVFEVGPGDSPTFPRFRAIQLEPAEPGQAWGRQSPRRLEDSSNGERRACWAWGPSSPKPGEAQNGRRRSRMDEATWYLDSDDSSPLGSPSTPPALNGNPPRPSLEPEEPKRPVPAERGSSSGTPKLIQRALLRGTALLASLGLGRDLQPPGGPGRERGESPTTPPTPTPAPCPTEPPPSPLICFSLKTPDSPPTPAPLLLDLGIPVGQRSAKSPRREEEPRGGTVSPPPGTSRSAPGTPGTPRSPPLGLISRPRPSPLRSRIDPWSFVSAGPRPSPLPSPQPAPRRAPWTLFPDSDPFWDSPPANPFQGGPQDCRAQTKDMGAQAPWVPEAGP
T5 sequence (Q9H2G2 whole entry): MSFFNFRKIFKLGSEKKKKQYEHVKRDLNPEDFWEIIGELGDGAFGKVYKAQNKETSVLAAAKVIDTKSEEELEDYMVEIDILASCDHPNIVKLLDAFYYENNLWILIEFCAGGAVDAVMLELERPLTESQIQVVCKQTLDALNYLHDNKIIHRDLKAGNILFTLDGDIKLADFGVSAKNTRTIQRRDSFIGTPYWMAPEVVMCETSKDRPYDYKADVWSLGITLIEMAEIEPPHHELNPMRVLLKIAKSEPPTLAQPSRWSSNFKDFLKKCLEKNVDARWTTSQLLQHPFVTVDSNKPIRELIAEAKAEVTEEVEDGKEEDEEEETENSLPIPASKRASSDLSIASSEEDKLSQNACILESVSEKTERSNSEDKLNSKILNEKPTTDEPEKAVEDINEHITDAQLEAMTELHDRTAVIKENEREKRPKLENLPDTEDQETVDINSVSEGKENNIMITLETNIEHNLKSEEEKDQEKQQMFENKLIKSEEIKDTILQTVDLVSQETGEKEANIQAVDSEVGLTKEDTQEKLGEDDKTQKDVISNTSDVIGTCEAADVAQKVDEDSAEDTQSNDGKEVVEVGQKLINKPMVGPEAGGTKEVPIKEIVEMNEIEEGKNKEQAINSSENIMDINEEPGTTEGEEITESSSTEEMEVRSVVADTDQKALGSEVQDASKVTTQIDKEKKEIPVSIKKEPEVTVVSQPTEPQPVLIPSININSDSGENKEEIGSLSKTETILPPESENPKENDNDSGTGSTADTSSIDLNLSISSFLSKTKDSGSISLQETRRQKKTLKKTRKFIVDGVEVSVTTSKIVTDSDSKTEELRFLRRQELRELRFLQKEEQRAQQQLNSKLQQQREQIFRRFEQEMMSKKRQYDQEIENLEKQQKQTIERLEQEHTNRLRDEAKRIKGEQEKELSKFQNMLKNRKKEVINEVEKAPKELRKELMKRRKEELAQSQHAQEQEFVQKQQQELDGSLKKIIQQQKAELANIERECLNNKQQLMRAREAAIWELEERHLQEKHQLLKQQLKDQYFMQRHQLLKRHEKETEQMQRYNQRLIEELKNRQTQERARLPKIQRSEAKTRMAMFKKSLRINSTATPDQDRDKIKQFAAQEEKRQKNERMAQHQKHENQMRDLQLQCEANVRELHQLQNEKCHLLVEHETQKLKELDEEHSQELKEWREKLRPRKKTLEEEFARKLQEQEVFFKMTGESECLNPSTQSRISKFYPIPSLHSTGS
Sequence of PDGFRA (P16234 24-1089, species assumed): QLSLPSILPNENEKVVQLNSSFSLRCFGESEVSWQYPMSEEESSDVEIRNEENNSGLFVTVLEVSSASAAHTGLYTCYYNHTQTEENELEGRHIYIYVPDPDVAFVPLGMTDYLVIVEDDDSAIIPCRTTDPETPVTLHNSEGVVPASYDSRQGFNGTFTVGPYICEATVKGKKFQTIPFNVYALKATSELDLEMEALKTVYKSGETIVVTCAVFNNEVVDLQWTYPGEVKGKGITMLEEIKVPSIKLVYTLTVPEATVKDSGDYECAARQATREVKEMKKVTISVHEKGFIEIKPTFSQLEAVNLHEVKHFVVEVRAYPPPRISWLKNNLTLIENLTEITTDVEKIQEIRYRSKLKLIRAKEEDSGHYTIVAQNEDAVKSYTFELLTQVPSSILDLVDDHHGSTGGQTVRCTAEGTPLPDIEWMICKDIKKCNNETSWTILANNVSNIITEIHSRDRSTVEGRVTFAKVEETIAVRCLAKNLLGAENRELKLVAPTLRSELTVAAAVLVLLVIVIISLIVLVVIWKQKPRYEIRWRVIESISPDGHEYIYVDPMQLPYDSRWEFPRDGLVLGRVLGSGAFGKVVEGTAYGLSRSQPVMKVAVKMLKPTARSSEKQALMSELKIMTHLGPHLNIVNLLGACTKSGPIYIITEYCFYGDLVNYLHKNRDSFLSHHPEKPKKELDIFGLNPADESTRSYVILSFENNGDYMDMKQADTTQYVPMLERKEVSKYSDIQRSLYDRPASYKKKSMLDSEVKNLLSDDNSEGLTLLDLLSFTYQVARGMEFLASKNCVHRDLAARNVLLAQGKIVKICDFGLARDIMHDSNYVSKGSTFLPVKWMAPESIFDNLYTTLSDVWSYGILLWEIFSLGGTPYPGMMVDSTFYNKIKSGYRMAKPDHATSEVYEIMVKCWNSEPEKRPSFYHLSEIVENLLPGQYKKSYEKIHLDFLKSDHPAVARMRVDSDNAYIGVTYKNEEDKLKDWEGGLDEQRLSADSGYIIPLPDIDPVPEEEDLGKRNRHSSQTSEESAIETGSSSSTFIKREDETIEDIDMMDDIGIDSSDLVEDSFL
Sequence of PTK2 (Q05397 whole entry, species assumed): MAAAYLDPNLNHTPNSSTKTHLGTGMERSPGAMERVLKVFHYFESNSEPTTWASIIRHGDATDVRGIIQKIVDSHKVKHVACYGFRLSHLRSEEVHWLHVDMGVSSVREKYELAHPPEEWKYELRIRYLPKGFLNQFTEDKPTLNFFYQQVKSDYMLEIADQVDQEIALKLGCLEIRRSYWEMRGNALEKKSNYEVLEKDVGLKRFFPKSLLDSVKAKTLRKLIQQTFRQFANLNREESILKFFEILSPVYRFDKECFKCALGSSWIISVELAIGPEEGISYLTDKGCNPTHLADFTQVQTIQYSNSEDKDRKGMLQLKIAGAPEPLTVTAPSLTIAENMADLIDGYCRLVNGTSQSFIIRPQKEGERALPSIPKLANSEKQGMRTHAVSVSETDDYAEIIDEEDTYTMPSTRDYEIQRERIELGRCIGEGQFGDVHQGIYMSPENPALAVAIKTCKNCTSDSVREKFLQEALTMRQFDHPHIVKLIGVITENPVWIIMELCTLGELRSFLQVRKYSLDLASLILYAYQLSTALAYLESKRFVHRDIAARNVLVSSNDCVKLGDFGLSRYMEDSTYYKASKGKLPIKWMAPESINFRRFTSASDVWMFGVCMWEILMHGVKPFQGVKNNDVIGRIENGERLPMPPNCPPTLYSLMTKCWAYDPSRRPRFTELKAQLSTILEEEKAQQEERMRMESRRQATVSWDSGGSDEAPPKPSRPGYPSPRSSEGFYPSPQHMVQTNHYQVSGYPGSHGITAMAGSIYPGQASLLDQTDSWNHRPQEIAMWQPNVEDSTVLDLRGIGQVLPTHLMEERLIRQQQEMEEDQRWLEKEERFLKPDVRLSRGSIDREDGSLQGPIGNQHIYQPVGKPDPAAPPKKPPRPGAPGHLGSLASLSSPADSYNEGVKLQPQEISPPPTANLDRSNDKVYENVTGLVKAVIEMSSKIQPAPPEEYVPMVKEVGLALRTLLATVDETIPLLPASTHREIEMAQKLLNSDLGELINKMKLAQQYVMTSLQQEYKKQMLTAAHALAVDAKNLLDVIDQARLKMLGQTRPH
T1 sequence (Q9Y463 whole entry, species assumed): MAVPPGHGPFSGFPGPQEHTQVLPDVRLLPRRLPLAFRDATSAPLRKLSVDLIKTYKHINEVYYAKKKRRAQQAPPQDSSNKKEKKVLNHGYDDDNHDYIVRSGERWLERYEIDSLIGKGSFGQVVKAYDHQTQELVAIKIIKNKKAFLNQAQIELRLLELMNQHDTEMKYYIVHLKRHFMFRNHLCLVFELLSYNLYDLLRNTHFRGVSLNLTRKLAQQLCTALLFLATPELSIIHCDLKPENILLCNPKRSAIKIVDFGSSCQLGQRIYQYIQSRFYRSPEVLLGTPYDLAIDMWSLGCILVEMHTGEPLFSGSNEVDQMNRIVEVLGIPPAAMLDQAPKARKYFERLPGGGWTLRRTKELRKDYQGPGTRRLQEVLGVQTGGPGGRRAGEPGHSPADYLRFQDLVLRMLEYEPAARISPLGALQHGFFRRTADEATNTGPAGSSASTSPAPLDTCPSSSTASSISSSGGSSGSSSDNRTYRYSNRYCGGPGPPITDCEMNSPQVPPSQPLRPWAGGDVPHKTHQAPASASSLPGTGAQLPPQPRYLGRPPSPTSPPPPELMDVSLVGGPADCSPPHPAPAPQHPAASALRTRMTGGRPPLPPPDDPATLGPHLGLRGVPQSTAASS

C=CC(=O)N1CCCC(c2c(F)cc(C(N)=O)c3[nH]c4c(c23)CCCCC4)C1 (single isomer, unassigned) [Compound 5-6]
inhibition at 1 µM (DYRK1B): 16.1%
inhibition at 1 µM (FLT3): 2.2%
inhibition at 1 µM (MAP3K11): 16%
inhibition at 1 µM (MARK3): 1.6%
inhibition at 1 µM (PDGFRA): -26.6%
inhibition at 1 µM (PDK1): 22.8%
inhibition at 1 µM (PTK2): -69.1%
inhibition at 1 µM (SLK): -3.7%
inhibition at 1 µM (STK4/MST1): 0.9%

C=CC(=O)N1CCC[C@@H](c2c(F)cc(C(N)=O)c3[nH]c4c(c23)CC2(CC4)CC2)C1 [Compound 6-2, (S)-5-(1-acryloylpiperidin-3-yl)-6-fluoro-1,2,4,9-tetrahydrospiro[carbazole-3,1′-cyclopropane]-8-carboxamide]
inhibition at 1 µM (DYRK1B): -0.2%
inhibition at 1 µM (FLT3): -9.4%
inhibition at 1 µM (MAP3K11): 17.6%
inhibition at 1 µM (MARK3): -10.6%
inhibition at 1 µM (PDGFRA): 23.9%
inhibition at 1 µM (PDK1): -7.8%
inhibition at 1 µM (PTK2): 16.5%
inhibition at 1 µM (SLK): 8.9%
inhibition at 1 µM (STK4/MST1): -9.5%

C=CC(=O)N1CCC[C@@H](c2c(F)cc(C(N)=O)c3[nH]c4c(c23)CCC4)C1 [Compound 10-2, (S)-8-(1-acryloylpiperidin-3-yl)-7-fluoro-1,2,3,4-tetrahydrocyclo-penta[b]indole-5-carboxamide]
inhibition at 1 µM (DYRK1B): 6.6%
inhibition at 1 µM (FLT3): -4.6%
inhibition at 1 µM (MAP3K11): -3.2%
inhibition at 1 µM (MARK3): -90.5%
inhibition at 1 µM (PDGFRA): 2.1%
inhibition at 1 µM (PDK1): -28.3%
inhibition at 1 µM (PTK2): -14.6%
inhibition at 1 µM (SLK): -48.3%
inhibition at 1 µM (STK4/MST1): 0.4%

Reference: patent US20220009920A1 (GB005, Inc., priority 2020, published 2022)
